From US20130323284A1, “USE OF mTOR INHIBITORS TO TREAT BACTERIAL INFECTION” (JAZZYA INVESTMENTS, priority 2012, published 2013)

System: CYLD
Test: Immunoblot analysis of CYLD levels in Klebsiella pneumoniae infected cells
Format: cell-based
Conditions: U0126 10 mM; infected for 3 h; versus vehicle control
Method: An immunoblot analysis of CYLD levels in Klebsiella pneumoniae infected cells for 3 h in the presence of vehicle control (Kp) or PI3K inhibitor (LY294002, […]), AKT inhibitor ([…]), ERK inhibitor (U0126, […]) is shown. Membranes were reprobed for tubulin as a loading control.

## N#CC(=C(/N)Sc1ccccc1N)/C(C#N)=C(\N)Sc1ccccc1N [U0126]
  Klebsiella pneumoniae induced production of CYLD in the presence of inhibitor: PI3K-AKT-ERK dependent manner
